In ChEMBL document CHEMBL1667780, “Identification of a novel small molecule targeting UQCRB of mitochondrial complex III and its anti-angiogenic activity” (Bioorg Med Chem Lett, 2011):
Active and inactive are the calls of the source. The calls are words filed in the database; no cut-off is given here.

What was measured:
[1] = target: T1, Cytochrome b-c1 complex subunit 7 (Homo sapiens) (UniProt P14927); test: Binding affinity to human UQCRB at 25 uM by surface plasmon resonance assay
T1 sequence (whole entry): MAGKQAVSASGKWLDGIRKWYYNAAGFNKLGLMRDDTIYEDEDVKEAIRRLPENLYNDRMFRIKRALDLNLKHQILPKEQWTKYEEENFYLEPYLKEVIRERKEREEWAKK

[2] = target: T1, Cytochrome b-c1 complex subunit 7 (Homo sapiens); test: Binding affinity to UQCRB in HUVEC at 30 uM after 24 hrs by ter-caumarin competitive binding assay; format: cell-based

- Activity [1]: Active
- Activity [2]: Active
SMILES: C/C1=C\C[C@]2(C)C(=O)C(O)=C([C@H](C)CO)[C@H]2C/C=C(\C)[C@@H](O)CC/C(C)=C/CC1
